Test results from publication PMC7363806, “Characterization of Corosolic Acid as a KPC-2 Inhibitor That Increases the Susceptibility of KPC-2-Positive Bacteria to Carbapenems” (Frontiers in Pharmacology, 2020).
pIC50: −log10 of the molar value.

Molecular target: T1, KPC-2 (Klebsiella pneumoniae, UniProt Q9F663)
T1 construct: recombinant KPC-2 from pET28a (bla KPC-2 gene, NCBI NG_049253.1), expressed in E. coli BL21(DE3), Ni column purified
Experiment: nitrocefin hydrolysis assay with purified KPC-2, absorbance at […] nm
Assay type: biochemical

T1 sequence (Q9F663 25-293 limits assumed): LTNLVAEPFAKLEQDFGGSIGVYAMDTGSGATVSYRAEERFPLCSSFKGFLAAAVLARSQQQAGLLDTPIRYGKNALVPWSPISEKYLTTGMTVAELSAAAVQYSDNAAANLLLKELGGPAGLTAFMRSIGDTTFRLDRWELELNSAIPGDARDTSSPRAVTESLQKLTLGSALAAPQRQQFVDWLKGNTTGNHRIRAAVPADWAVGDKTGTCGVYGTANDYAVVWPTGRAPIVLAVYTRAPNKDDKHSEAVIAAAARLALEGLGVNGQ

`C[C@H]1[C@H](C)CC[C@]2(C(=O)O)CC[C@]3(C)C(=CC[C@@H]4[C@@]5(C)C[C@@H](O)[C@H](O)C(C)(C)[C@@H]5CC[C@]43C)[C@H]12` [CA, corosolic acid] showed a pIC50 of 5.30.
